Data from ChEMBL document CHEMBL5096216, “Rational Design, Synthesis, and Biological Evaluation of Novel S1PR2 Antagonists for Reversing 5-FU-Resistance in Colorectal Cancer” (J Med Chem, 2022).
pIC50: −log10 of the molar value.

Experiments:
[1] = Cytotoxicity against human NCM460 cells assessed as reduction in cell viability incubated for 48 hrs by MTT assay; format: toxicity, cell-based
SW620/5-FU [2] = experiment: Reversal of 5-FU resistance in human SW620/5-FU cells assessed as fold reduction in 5-Fluorouracil IC50 at 5 uM incubated for 48 hrs; format: functional
SW620/5-FU [3] = experiment: Induction of apoptosis in human SW620/5-FU cells assessed as viable cells at 20 uM incubated for 24 hrs by Annexin-V/PI staining based flow cytometry assay (reference value: 94.3%); format: functional; conditions: read-out: Activity
SW620/5-FU [4] = experiment: Induction of apoptosis in human SW620/5-FU cells assessed as necrotic cells at 20 uM incubated for 24 hrs by Annexin-V/PI staining based flow cytometry assay (reference value: 0%); format: functional
SW620/5-FU [5] = experiment: Induction of apoptosis in human SW620/5-FU cells assessed as late apoptotic cells at 20 uM incubated for 24 hrs in presence of 5-FU by Annexin-V/PI staining based flow cytometry assay (reference value: 2.97%); format: functional
SW620/5-FU [6] = experiment: Antitumor activity against human SW620/5-FU cells xenografted in nude mouse assessed as tumor growth inhibition at 1 mg/kg/day, iv in presence of 5-FU; format: functional; conditions: read-out: TGI
[7] = Toxicity in nude mouse xenografted with human SW620/5-FU cells assessed as morphological changes in heart at 1 to 10 mg/kg/day, iv by hematoxylin-eosin staining based analysis; format: organism-based; conditions: in vivo, dose 1-10 mg/kg/day
[8] = Toxicity in nude mouse xenografted with human SW620/5-FU cells assessed as morphological changes in liver at 1 to 10 mg/kg/day, iv by hematoxylin-eosin staining based analysis; format: organism-based; conditions: in vivo, dose 1-10 mg/kg/day
[9] = Toxicity in nude mouse xenografted with human SW620/5-FU cells assessed as morphological changes in lung at 1 to 10 mg/kg/day, iv by hematoxylin-eosin staining based analysis; format: organism-based; conditions: in vivo, dose 1-10 mg/kg/day
SW620/5-FU [10] = experiment: cells; conditions: Homo sapiens, 48 h

SMILES: CCC(CC)CN1CCN(C(=O)Nc2cc(Oc3ccc(F)cc3)cc(Oc3ccc(C(=O)NC)cc3)c2)CC1
- IC50 at 48 hrs [1]: > 100 µM
- fold change (FC) (SW620/5-FU [2]): 88
- viability at 20 µM (SW620/5-FU [3]): 92.1%
- Activity (SW620/5-FU [4]): 0.086%
- Activity (SW620/5-FU [5]): 7.14%
- inhibition in vivo at 1 mg/kg/day (SW620/5-FU [6]): 49.5%
- Activity [7]: Non-Toxic
- Activity [8]: Non-Toxic
- Activity [9]: Non-Toxic
- pIC50 (SW620/5-FU [10]): 4.75
